In brackets after ≈: the same amount, converted by molar mass.
Legend:
Type in all cases: functional
[1] = tested on: Mycobacterium tuberculosis; assay: AntiMycobacterium tuberculosis activity Non-Replicating form: Average MIC90 (uM)
[2] = tested on: Mycobacterium tuberculosis; assay: AntiMycobacterium tuberculosis activity 1-week GAST/Fe MIC (uM); conditions: 168 h
[3] = tested on: Mycobacterium tuberculosis; assay: AntiMycobacterium tuberculosis activity 2-week GAST/Fe MIC (uM); conditions: 336 h
[4] = tested on: Mycobacterium tuberculosis; assay: AntiMycobacterium tuberculosis activity 1-week 7H9/ADC/Tw MIC (uM); conditions: 168 h
[5] = tested on: Mycobacterium tuberculosis; assay: AntiMycobacterium tuberculosis activity 2-week 7H9/ADC/Tw MIC (uM); conditions: 336 h
[6] = tested on: Mycobacterium tuberculosis; assay: AntiMycobacterium tuberculosis activity 2-week Alamar Blue 7H9/ADC/Tw MIC (uM); conditions: 336 h
[7] = tested on: Mycobacterium tuberculosis; assay: AntiMycobacterium tuberculosis activity 1-week 7H9/glucose/BSA/Tx MIC (uM); conditions: 168 h
[8] = tested on: Mycobacterium tuberculosis; assay: AntiMycobacterium tuberculosis activity 2-week 7H9/glucose/BSA/Tx MIC (uM); conditions: 336 h
[9] = tested on: Mycobacterium tuberculosis; assay: AntiMycobacterium tuberculosis activity 1-week 7H9/DPPC/cholesterol/BSA/Tx MIC (uM); conditions: 168 h
[10] = tested on: Mycobacterium tuberculosis; assay: AntiMycobacterium tuberculosis activity 2-week 7H9/DPPC/cholesterol/BSA/Tx MIC (uM); conditions: 336 h
[11] = tested on: Mycobacterium tuberculosis; assay: AntiMycobacterium tuberculosis activity 1-week 7H9/cholesterol/BSA/Tx MIC (uM); conditions: 168 h
[12] = tested on: Mycobacterium tuberculosis; assay: AntiMycobacterium tuberculosis activity 2-week Alamar Blue 7H9/cholesterol/BSA/Tx MIC (uM); conditions: 336 h
[13] = tested on: Mycobacterium tuberculosis; assay: (§1) AntiMycobacterium tuberculosis activity day 10 in 7H9/2.5mM butyrate/pH6/0.1mM nitrite MIC90 (uM); conditions: 240 h
[14] = tested on: Mycobacterium tuberculosis; assay: AntiMycobacterium tuberculosis activity day 21 in 7H9/2.5mM butyrate/pH6/0.1mM nitrite MIC90 (uM); conditions: 504 h
[15] = tested on: Mycobacterium tuberculosis; assay: as §1; conditions: 240 h; remark: listed apart in the source
[16] = tested on: Mycobacterium tuberculosis; assay: AntiMycobacterium tuberculosis activity day 21 MIC99 in 7H9/2.5mM butyrate/pH6/0.1mM nitrite MIC99 (uM); conditions: 504 h
[17] = tested on: Mycobacterium tuberculosis; assay: AntiMycobacterium tuberculosis activity Replicating form: Average MIC90 (uM)
HepG2 = assay: HepG2 CC50 (uM) Cytotoxicity; conditions: Homo sapiens

SMILES	MIC90 [1] [µM]	MIC [2] [µM]	MIC [3] [µM]	MIC [4] [µM]	MIC [5] [µM]	MIC [6] [µM]	MIC [7] [µM]	MIC [8] [µM]	MIC [9] [µM]	MIC [10] [µM]	MIC [11] [µM]	MIC [12] [µM]	MIC90 [13] [µM]	MIC90 [14] [µM]	MIC90 [15] [µM]	MIC [16] [µM]	MIC90 [17] [µM]	CC50 (HepG2) [µM]
Cc1ccc2nc(Cl)c(CNCc3cccs3)cc2c1	93.7 (≈ 28.4 µg/mL)	0.78 (≈ 0.236 µg/mL)	1.56 (≈ 0.472 µg/mL)	> 50	> 50	50 (≈ 15.1 µg/mL)	> 50	> 50	12.5 (≈ 3.79 µg/mL)	> 50	19 (≈ 5.75 µg/mL)	37 (≈ 11.2 µg/mL)	> 50	> 50	> 50	> 50	> 100	> 100
O=C(Nc1nnc(-c2ccc(Cl)cc2)o1)c1cccc(C(F)(F)F)c1	2.71 (≈ 0.997 µg/mL)	0.05 (≈ 0.0184 µg/mL)	0.07 (≈ 0.0257 µg/mL)	25 (≈ 9.19 µg/mL)	25 (≈ 9.19 µg/mL)	25 (≈ 9.19 µg/mL)	3.13 (≈ 1.15 µg/mL)	6.25 (≈ 2.3 µg/mL)	4.7 (≈ 1.73 µg/mL)	19 (≈ 6.99 µg/mL)	19 (≈ 6.99 µg/mL)	12.5 (≈ 4.6 µg/mL)	12.5 (≈ 4.6 µg/mL)	12.5 (≈ 4.6 µg/mL)	> 50	50 (≈ 18.4 µg/mL)	27.2 (≈ 10 µg/mL)	9
Cc1cc(C)cc(COc2ccc3c(C)c(CCC(=O)O)c(=O)oc3c2C)c1	> 100	6.25 (≈ 2.38 µg/mL)	9.4 (≈ 3.58 µg/mL)	> 50	> 50	> 50	> 50	> 50	50 (≈ 19 µg/mL)	50 (≈ 19 µg/mL)	> 50	> 50	> 50	> 50	> 50	> 50	> 100	> 100
CNc1snc(C)c1C(=O)NCCOc1ccc(OC)cc1	19.8 (≈ 6.36 µg/mL)	0.2 (≈ 0.0643 µg/mL)	0.78 (≈ 0.251 µg/mL)	> 50	> 50	12.5 (≈ 4.02 µg/mL)	50 (≈ 16.1 µg/mL)	> 50	19 (≈ 6.11 µg/mL)	50 (≈ 16.1 µg/mL)	3.13 (≈ 1.01 µg/mL)	3.13 (≈ 1.01 µg/mL)	6.25 (≈ 2.01 µg/mL)	50 (≈ 16.1 µg/mL)	6.25 (≈ 2.01 µg/mL)	50 (≈ 16.1 µg/mL)	> 100	> 100
N#Cc1nc(-c2ccccc2F)oc1NCCc1ccccc1	75.5 (≈ 23.2 µg/mL)	0.78 (≈ 0.24 µg/mL)	1.56 (≈ 0.479 µg/mL)	> 50	> 50	37 (≈ 11.4 µg/mL)	> 50	> 50	12.5 (≈ 3.84 µg/mL)	50 (≈ 15.4 µg/mL)	19 (≈ 5.84 µg/mL)	12.5 (≈ 3.84 µg/mL)	50 (≈ 15.4 µg/mL)	> 50	> 50	> 50	> 100	> 100
O=C(C1CCN(c2cc(-n3cccc3)ncn2)CC1)N1CCc2ccccc2C1	7.62 (≈ 2.95 µg/mL)	0.39 (≈ 0.151 µg/mL)	0.6 (≈ 0.232 µg/mL)	0.78 (≈ 0.302 µg/mL)	1.56 (≈ 0.604 µg/mL)	1.56 (≈ 0.604 µg/mL)	2.3 (≈ 0.891 µg/mL)	2.3 (≈ 0.891 µg/mL)	3.13 (≈ 1.21 µg/mL)	3.13 (≈ 1.21 µg/mL)	3.13 (≈ 1.21 µg/mL)	3.13 (≈ 1.21 µg/mL)	12.5 (≈ 4.84 µg/mL)	50 (≈ 19.4 µg/mL)	> 50	> 50	7.41 (≈ 2.87 µg/mL)	> 100
COc1ccc(Nc2ccccc2NC(=O)c2ccc(O)nc2)cc1	17.8 (≈ 5.97 µg/mL)	< 0.02	< 0.02	37 (≈ 12.4 µg/mL)	37 (≈ 12.4 µg/mL)	12.5 (≈ 4.19 µg/mL)	37 (≈ 12.4 µg/mL)	37 (≈ 12.4 µg/mL)	0.6 (≈ 0.201 µg/mL)	2.3 (≈ 0.771 µg/mL)	0.3 (≈ 0.101 µg/mL)	0.6 (≈ 0.201 µg/mL)	1.5 (≈ 0.503 µg/mL)	6.25 (≈ 2.1 µg/mL)	> 50	> 50	28.6 (≈ 9.59 µg/mL)	42.5
O=C(Nc1cccnc1)c1c(O)c2cccc3c2n(c1=O)CC3	7.75 (≈ 2.38 µg/mL)	3.13 (≈ 0.962 µg/mL)	3.13 (≈ 0.962 µg/mL)	25 (≈ 7.68 µg/mL)	25 (≈ 7.68 µg/mL)	25 (≈ 7.68 µg/mL)	6.25 (≈ 1.92 µg/mL)	9.4 (≈ 2.89 µg/mL)	12.5 (≈ 3.84 µg/mL)	12.5 (≈ 3.84 µg/mL)	12.5 (≈ 3.84 µg/mL)	12.5 (≈ 3.84 µg/mL)	6.25 (≈ 1.92 µg/mL)	12.5 (≈ 3.84 µg/mL)	> 50	> 50	8.35 (≈ 2.57 µg/mL)	> 100
CCC(Sc1nc2ccccc2o1)C(=O)Nc1nccs1 (stereo unspecified)	1.38 (≈ 0.441 µg/mL)	37 (≈ 11.8 µg/mL)	37 (≈ 11.8 µg/mL)	9.4 (≈ 3 µg/mL)	9.4 (≈ 3 µg/mL)	9.4 (≈ 3 µg/mL)	9.4 (≈ 3 µg/mL)	12.5 (≈ 3.99 µg/mL)	9.4 (≈ 3 µg/mL)	12.5 (≈ 3.99 µg/mL)	12.5 (≈ 3.99 µg/mL)	12.5 (≈ 3.99 µg/mL)	6.25 (≈ 2 µg/mL)	6.25 (≈ 2 µg/mL)	12.5 (≈ 3.99 µg/mL)	6.25 (≈ 2 µg/mL)	3.08 (≈ 0.984 µg/mL)	13
CCOC(=O)c1cc(-c2csc(Nc3c(C)cc(C)cc3C)n2)on1	13.8 (≈ 4.94 µg/mL)	12.5 (≈ 4.47 µg/mL)	12.5 (≈ 4.47 µg/mL)	4.7 (≈ 1.68 µg/mL)	9.4 (≈ 3.36 µg/mL)	6.25 (≈ 2.23 µg/mL)	3.13 (≈ 1.12 µg/mL)	4.7 (≈ 1.68 µg/mL)	3.13 (≈ 1.12 µg/mL)	6.25 (≈ 2.23 µg/mL)	1.56 (≈ 0.558 µg/mL)	3.13 (≈ 1.12 µg/mL)	3.1 (≈ 1.11 µg/mL)	6.25 (≈ 2.23 µg/mL)	6.25 (≈ 2.23 µg/mL)	6.25 (≈ 2.23 µg/mL)	17.5 (≈ 6.26 µg/mL)	24.4
CC(C)n1ncc2c(C(=O)NCC(c3cccs3)N3CCOCC3)cc(-c3ccccc3)nc21 (stereo unspecified)	1.28 (≈ 0.609 µg/mL)	0.3 (≈ 0.143 µg/mL)	0.3 (≈ 0.143 µg/mL)	0.78 (≈ 0.371 µg/mL)	1.2 (≈ 0.571 µg/mL)	1.2 (≈ 0.571 µg/mL)	1.2 (≈ 0.571 µg/mL)	1.2 (≈ 0.571 µg/mL)	0.78 (≈ 0.371 µg/mL)	0.78 (≈ 0.371 µg/mL)	0.6 (≈ 0.285 µg/mL)	1.56 (≈ 0.742 µg/mL)	3.12 (≈ 1.48 µg/mL)	3.12 (≈ 1.48 µg/mL)	1.5 (≈ 0.713 µg/mL)	1.5 (≈ 0.713 µg/mL)	0.61 (≈ 0.29 µg/mL)	58
CCc1nc2ccccc2n1CC(O)COc1cc(C)ccc1Cl (stereo unspecified)	70 (≈ 24.1 µg/mL)	12.5 (≈ 4.31 µg/mL)	12.5 (≈ 4.31 µg/mL)	37 (≈ 12.8 µg/mL)	≥ 50	37 (≈ 12.8 µg/mL)	37 (≈ 12.8 µg/mL)	≥ 50	12.5 (≈ 4.31 µg/mL)	25 (≈ 8.62 µg/mL)	9.4 (≈ 3.24 µg/mL)	9.4 (≈ 3.24 µg/mL)	25 (≈ 8.62 µg/mL)	50 (≈ 17.2 µg/mL)	> 50	> 50	78 (≈ 26.9 µg/mL)	43.2
